Patent EP3325012B1, “CINEOLE-CONTAINING COMPOSITION FOR TREATING NOSE POLYPS” (Maria Clementine Martin Klosterfrau Vertriebsgesellschaft …, priority 2015, dated 2017)
Entries after “also recorded” stand apart in the source; their conditions may differ.

Legend:
[1] = system: Nasenpolypenzellen; test: Proliferation of nasal polyp cells (xCELLigence Real Time Cell Analyzer; figure legend says MTT test); assay type: cell-based, Mensch; conditions: 100 µM 1,8-Cineol, after 144 Stunden; two subjects I and II (Figur 2A)
Description: Material und Methoden: Die Anmelderin hat Gewebeproben aus Nasenpolypen und unteren Nasenmuscheln von Patienten mit CRSwNP (chronischer Rhinosinusitis mit Nasenpolypen) und aus unteren Nasenmuscheln von Probanden ohne chronische Sinusitis (gesunde Schleimhaut) auf Basis von immunohistochemischen Methoden und Immunoblot-Verfahren untersucht. Die zelluläre Proliferation und Migration wurden unter Einsatz des xCELLigence Real Time Cell Analyzer untersucht.
Proben von Nasenpolypen wurden in PBS-Puffer gewaschen und in sterilem serumfreiem "High Glucose Dulbecco's Modified Eagle Medium" (PAA, Pasching, Österreich) mit einer Skalpellklinge vorsichtig in kleine Stücke zerkleinert, wobei das Medium 1 % L-Glutamin, 1 % Natriumpyruvat, 1 % nichtessentielle Aminosäuren, 2 % Amphotericin B, 2 % Streptomycin und 2 % Penicillin, ergänzt mit 10 % FCS, und 25 mM HEPES Puffer, enthielt (alle von PAA, Pasching, Österreich). […]
Die Zellproliferation wurde mittels eines quantitativen kolorimetrischen 3-(4,5-Dimethylthiazol 2-yl)-2,5-diphenyltetrazoliumbromid-basierten (MTT) Zelltests bestimmt. […]

[2] = system: Phosphokinasen; test: Human Phospho-Kinase Antibody Array on nasal epithelial cells; assay type: cell-based, Mensch; conditions: 100 µM, 24 Stunden; epithelial cells from nasal polyps compared with epithelial cells from inferior turbinates
Description: Pflanzliche Medikationen könnten diese Nebenwirkungen reduzieren. In der Naturheilkunde werden ätherische Öle aufgrund ihrer sekretolytischen Eigenschaften zur Behandlung von Menschen eingesetzt, die klinische Verwendung wird jedoch aufgrund von Reizungen der Atemwege nach Inhalation bzw. Aufnahme eingeschränkt. Der Hauptbestandteil von Eukalyptusöl, nämlich 1,8-Cineol, wurde zur Behandlung von akuter und chronischer Bronchitis, Sinusitis und respiratorischen Infekten eingesetzt und allgemein gut vertragen. Bei dem Monoterpen 1,8-Cineol handelt es sich um ein Isoprenoid mit antiinflammatorischen Eigenschaften, welches menschlichen Isoprenoiden, wie Glucocorticoid, ähnelt. Unlängst wurden seitens der Anmelderin neue Eigenschaften des Mechanismus von 1,8-Cineol in Epithelzellen des Nasenpolypengewebes von Patienten mit chronischer Rhinosinusitis entdeckt. Im Rahmen dieser Studien hat die Anmelderin Epithelzellen aus Nasenpolypen und Gewebe der unteren Nasenmuscheln von zahlreichen Patienten isoliert und über einen Zeitraum von 24 Stunden in 100 µM 1,8-Cineol inkubiert. Die Proteine wurden isoliert und die Phosphokinasen mit Hilfe des "Human Phospho-Kinase Antibody Array" von R&D Systems ermittelt. […]

Compound: CC12CCC(CC1)C(C)(C)O2 [1,8-Cineol, 1,3,3-Trimethyl-2-oxabicyclo[2.2.2]octan]
- Proliferation von Nasenpolypenzellen [1]: stark verringerte Proliferation; also recorded: stark abnehmende Proliferation
- Expression von Phosphokinasen [2]: veränderte Expression
